Each molecule was assayed against T1, 5-lipoxygenase (Mus musculus, UniProt P48999) (assay: 5-Lipoxygenase-inhibiting Activity (decrease in 5-HETE and LTB4 formed from radiolabelled arachidonic acid, enzyme solution from mouse mastcytoma cells P-815)). Settings: not given.
T1 construct: The supernatant is used as a 5-lipogenase enzyme solution; endogenous in cells
T1 sequence (P48999 1-674): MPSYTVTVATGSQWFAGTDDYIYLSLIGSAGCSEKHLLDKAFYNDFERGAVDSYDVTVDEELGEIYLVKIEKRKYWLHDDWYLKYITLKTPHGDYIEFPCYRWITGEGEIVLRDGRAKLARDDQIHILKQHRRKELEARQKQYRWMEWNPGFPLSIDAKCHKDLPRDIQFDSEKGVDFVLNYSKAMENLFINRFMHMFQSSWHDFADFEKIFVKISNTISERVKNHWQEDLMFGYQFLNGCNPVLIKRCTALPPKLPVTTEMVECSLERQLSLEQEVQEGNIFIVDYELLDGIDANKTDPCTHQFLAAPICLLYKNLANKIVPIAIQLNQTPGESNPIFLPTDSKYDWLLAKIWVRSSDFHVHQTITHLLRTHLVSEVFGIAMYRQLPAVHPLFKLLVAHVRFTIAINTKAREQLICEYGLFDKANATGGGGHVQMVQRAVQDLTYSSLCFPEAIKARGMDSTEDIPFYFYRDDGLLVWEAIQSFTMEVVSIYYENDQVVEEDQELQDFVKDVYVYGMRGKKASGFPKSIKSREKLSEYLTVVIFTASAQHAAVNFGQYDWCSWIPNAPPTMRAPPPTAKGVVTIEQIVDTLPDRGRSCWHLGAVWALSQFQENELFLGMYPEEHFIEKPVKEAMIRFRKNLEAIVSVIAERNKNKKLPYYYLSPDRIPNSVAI
Format: biochemical
Outline: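 Enzyme is sonicated 10,000 rpm supernatant of P-815 mouse mastocytoma cells, reacted 5 min at 37 °C with radiolabelled arachidonic acid, indomethacin and CaCl2 in pH 7.4 phosphate buffer. 5-HETE and LTB4 separated by TLC and counted by scintillation; IC50 or IC30 is concentration reducing product to 50% or 30% of control.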

Row | SMILES | IC50 [nM]
1 | COc1cc(/C=C/C=C/C(=O)N2CCN(CCOC(c3ccccc3)c3ccccc3)CC2)ccc1O [Example 89, N-[5-(3-methoxy-4-hydroxyphenyl)-2,4-pentadienoyl]-N'-(2-benzhydroxyethyl)piperazine] | 60
2 | COc1cc(/C=C/C=C/C(=O)N2CCN(CCOC(c3ccccc3)c3ccccc3)CC2)cc(OC)c1O [Example 98, N-[5-(3,5-dimethoxy-4-hydroxyphenyl)-2,4-pentadienoyl)-N'-(2-benzhydroxyethyl)piperazine] | 9

Same assay, conditions: 5-HETE and LTB4 formation; mouse mastcytoma P-815 enzyme solution; 37° C., 5 min; pH 7.4; with indomethacin; read-out: 50% Inhibitory concentration IC50

Row | SMILES | IC50 [nM]
3 | COc1cc(/C=C/C=C/C(=O)NCCn2cnc3c2c(=O)n(C)c(=O)n3C)ccc1O [Example 88] | 4000
4 | COc1cc(/C=C/C=C/C(=O)N2CCN(CCCOC(c3ccccc3)c3ccccc3)CC2)ccc1O [Example 90, N-[5-(3-methoxy-4-hydroxyphenyl)-2,4-pentadienoyl]-N'-(3-benzhydroxypropyl)piperazine] | 60
5 | COc1cc(/C=C/C=C/C(=O)NCCOC(c2ccccc2)c2ccccc2)ccc1O [Example 91, 2-[5-(3-methoxy-4-hydroxy)phenyl-2,4-pentadienoyl]aminoethyl benzhydryl ether] | 60
6 | COc1cc(/C=C/C=C/C(=O)NCCCOC(c2ccccc2)c2ccccc2)ccc1O [Example 92, 3-[5-[3-methoxy-4-hydroxyphenyl)-2,4-pentadienoyl]aminopropyl benzhydryl ether] | 90
7 | COc1ccc(/C=C/C=C/C(=O)NCCCCN2CCN(C(c3ccccc3)c3ccccc3)CC2)cc1OC [Example 93] | 3000
8 | COc1ccc(/C=C/C=C/C(=O)N2CCN(CCCOC(c3ccccc3)c3ccccc3)CC2)cc1OC [Example 94, N-[5-(3,4-dimethoxyphenyl)-2,4-pentadienoyl]-N'-(3-benzhydroxypropyl)piperazine] | 4000
9 | COc1cc(/C=C/C=C/C(=O)NCCn2cnc3c2c(=O)n(C)c(=O)n3C)cc(OC)c1OC [Example 95] | 9000
10 | COc1cc(/C=C/C=C/C(=O)NCCCCN2CCN(C(c3ccccc3)c3ccc(Cl)cc3)CC2)cc(OC)c1O (stereo not drawn) [Example 96, N-p-chlorobenzhydryl-N'-5-(3,5-dimethoxy-4-hydroxy)phenyl-2,4-pentadienlylaminobutylpiperazine] | 20
11 | COc1cc(/C=C/C=C/C(=O)NCCCCN2CCN(C(c3ccccc3)c3ccccc3)CC2)cc(OC)c1O [Example 97, N-benzhydryl-N'-[4-[5-(3,5-dimethoxy-4-hydroxy)phenyl-2,4-pentadienoyl]aminobutyl]] | 40
12 | COc1cc(/C=C/C=C/C(=O)N2CCN(CCCOC(c3ccccc3)c3ccccc3)CC2)cc(OC)c1O [Example 99] | 30
13 | COc1cc(/C=C/C=C/C(=O)NCCOC(c2ccccc2)c2ccccc2)cc(OC)c1O [Example 100, 2-[5-(3,5-dimethoxy-4-hydroxy)phenyl-2,4-pentadienoyl]aminoethyl benzhydryl ether] | 10
14 | CC(OCCCN1CCN(C(=O)/C=C/c2ccc(O)c(O)c2)CC1)(c1ccccc1)c1ccc(Cl)cc1 (stereo not drawn) [Example 101, N-[3-(3,4-dihydroxyphenyl)-2-propenoyl]-N'-[3-[1-phenyl-1-(p-chlorophenyl)ethoxy]propyl]piperazine] | 10
15 | COc1cc(/C=C/C(=O)N2CCN(CCOC(C)(c3ccccc3)c3ccc(Cl)cc3)CC2)ccc1O (stereo not drawn) [Example 102, N-[3-[3-methoxy-4-hydroxyphenyl)-2-propenoyl]-N'-[2-[1-phenyl-1-(p-chlorophenyl)ethoxy]ethyl]piperazine] | 200
16 | COc1cc(/C=C/C(=O)N2CCN(CCn3cnc4c3c(=O)n(C)c(=O)n4C)CC2)ccc1O [Example 103, 7-[2-[4-[3(3-methoxy-4-hydroxyphenyl)-2-propenoyl]piperazin-1-yl]-ethyl]theophilline] | 30000
17 | COc1ccc(/C=C/C(=O)N2CCN(CCCOC(C)(c3ccccc3)c3ccc(Cl)cc3)CC2)cc1OC (stereo not drawn) [Example 104, N-[3-(3,4-dimethoxy)phenyl-2-propenoyl]-N'-[3-[1-phenyl-1-(p-chlorophenyl)ethoxy]propyl]piperazine] | 10000
18 | COc1cc(/C=C/C(=O)N2CCN(CCOC(C)(c3ccccc3)c3ccc(Cl)cc3)CC2)cc(OC)c1O (stereo not drawn) [Example 105, N-[3-(3,5-dimethoxy-4-hydroxyphenyl)-2-propenoyl]-N'-[2-[1-phenyl-1-(p-chlorophenyl)ethoxy]ethyl]piperazine] | 10
19 | COc1cc(/C=C/C(=O)N2CCN(CCCOC(C)(c3ccccc3)c3ccc(Cl)cc3)CC2)cc(OC)c1O (stereo not drawn) [Example 106, N-[3-(3,5-dimethoxy-4-hydroxy)phenyl-2-propenoyl]-N'-[3-[1-phenyl-1-(p-chlorophenyl)ethoxy]propyl]piperazine] | 10

Row | SMILES | IC50 [nM]
20 | CC(OCCN1CCN(C(=O)/C=C/C=C/c2ccc(O)c(O)c2)CC1)(c1ccccc1)c1ccc(Cl)cc1 (stereo not drawn) [Example 107, N-[5-(3,4-dihydroxyphenyl)-2,4-pentadienoyl]-N-[2-[1-phenyl-1-(p-chlorophenyl)-ethoxy]ethyl]piperazine] | 10
21 | CC(OCCCN1CCN(C(=O)/C=C/C=C/c2ccc(O)c(O)c2)CC1)(c1ccccc1)c1ccc(Cl)cc1 (stereo not drawn) [Example 108, N-[5-(3,4-dihydroxy)phenyl-2,4-pentadienoyl]-N'-[3-[1-phenyl-1-(p-chlorophenyl)ethoxy]propyl]piperazine] | 8
22 | Cn1c(=O)c2c(ncn2CCN2CCN(C(=O)/C=C/C=C/c3ccc(O)c(O)c3)CC2)n(C)c1=O [Example 109] | 2000
23 | COc1cc(/C=C/C=C/C(=O)N2CCN(CCOC(C)(c3ccccc3)c3ccc(Cl)cc3)CC2)ccc1O (stereo not drawn) [Example 110, N-[5-(3-methoxy-4-hydroxyphenyl)-2,4-pentadienoyl]-N'-[2-[1-phenyl-1-(p-chlorophenyl)ethoxy]ethyl]piperazine] | 10
24 | COc1cc(/C=C/C=C/C(=O)N2CCN(CCCOC(C)(c3ccccc3)c3ccc(Cl)cc3)CC2)ccc1O (stereo not drawn) [Example 111, N-[5-(3-methoxy-4-hydroxy)phenyl-2,4-pentadienoyl)-N'-[3-[1-phenyl-1-(p-chlorophenyl)ethoxy]propyl]piperazine] | 10
25 | COc1cc(/C=C/C=C/C(=O)N2CCN(CCn3cnc4c3c(=O)n(C)c(=O)n4C)CC2)ccc1O [Example 112] | 2000
26 | COc1cc(/C=C/C=C/C(=O)N2CCN(CCOC(C)(c3ccccc3)c3ccc(Cl)cc3)CC2)cc(OC)c1O (stereo not drawn) [Example 113, N-[5-(3,5-dimethoxy-4-hydroxyphenyl]-2,4-pentadienoyl]-N'-[2-[1-phenyl-1-(p-chlorophenyl)ethoxy]ethyl]piperazine] | 20
27 | COc1cc(/C=C/C=C/C(=O)N2CCN(CCn3cnc4c3c(=O)n(C)c(=O)n4C)CC2)cc(OC)c1O [Example 114] | 2000
28 | COc1cc(/C=C/C=C/C(=O)N2CCN(CCn3cnc4c3c(=O)n(C)c(=O)n4C)CC2)cc(OC)c1OC [Example 115, 7-[2-[4-[5-(3,4,5-trimethoxyphenyl)-2,4-pentadienoyl]piperazin-1-yl]ethyl]theophylline] | 20000
29 | COc1cc(/C=C/C(=O)NCCN2CCC(OC(c3ccccc3)c3ccccc3)CC2)ccc1O [Example 116, 1-[2-[3-(3-methoxy-4-hydroxyphenyl)-2-propenoyl]aminoethyl]-4-benzhydroxypiperidine] | 400
30 | COc1cc(/C=C/C(=O)NCCN2CCC(OC(c3ccccc3)c3ccccc3)CC2)cc(OC)c1O [Example 117, 1-[2-[3-(3,5-dimethoxy-4-hydroxyphenyl)-2-propenoyl]aminoethyl]-4-benzhydroxypiperidine] | 20
31 | O=C(/C=C/C=C/c1ccc(O)c(O)c1)NCCN1CCC(OC(c2ccccc2)c2ccccc2)CC1 [Example 118] | 30
32 | COc1cc(/C=C/C=C/C(=O)NCCN2CCC(OC(c3ccccc3)c3ccccc3)CC2)ccc1O [Example 119, 1-[2-[5-(3-methoxy-4-hydroxyphenyl)-2,4-pentadienoyl]aminoethyl]4-benzhydroxypiperidine] | 9
33 | COc1cc(/C=C/C=C/C(=O)NCCN2CCC(OC(c3ccccc3)c3ccccc3)CC2)cc(OC)c1O [Example 120, 1-[2-[5-(3,5-dimethoxy-4-hydroxyphenyl)-2,4-pentadienoyl]aminoethyl]-4-benzhydroxypiperidine] | 10
34 | Cn1c(=O)c2c(ncn2CCCCN2CCN(C(=O)/C=C/c3ccc(O)c(O)c3)CC2)n(C)c1=O [Example 121, 7-[4-[4-{3-(3,4-dihydroxyphenyl)-2-propenoyl}piperazi-1-nyl]butyl]theophylline] | 5000
35 | O=C(/C=C/c1ccc(O)c(O)c1)NCCCN1CCC(OC(c2ccccc2)c2ccccc2)CC1 [Example 122, 1-[3-[3-(3,4-dihydroxyphenyl)-2-propenoyl]aminopropyl]-4-benzhydroxypiperidine] | 10
36 | COc1cc(/C=C/C(=O)N2CCN(CCCn3cnc4c3c(=O)n(C)c(=O)n4C)CC2)ccc1O [Example 123] | 10000
